Reference: ChEMBL document CHEMBL5291721, “A preclinical secondary pharmacology resource illuminates target-adverse drug reaction associations of marketed drugs” (Nat Commun, 2023)

Target: Vascular endothelial growth factor receptor 2 (Homo sapiens, UniProt P35968)
Type: functional
Note: assay procedure not described here.

Chain of Vascular endothelial growth factor receptor 2 (P35968 whole entry): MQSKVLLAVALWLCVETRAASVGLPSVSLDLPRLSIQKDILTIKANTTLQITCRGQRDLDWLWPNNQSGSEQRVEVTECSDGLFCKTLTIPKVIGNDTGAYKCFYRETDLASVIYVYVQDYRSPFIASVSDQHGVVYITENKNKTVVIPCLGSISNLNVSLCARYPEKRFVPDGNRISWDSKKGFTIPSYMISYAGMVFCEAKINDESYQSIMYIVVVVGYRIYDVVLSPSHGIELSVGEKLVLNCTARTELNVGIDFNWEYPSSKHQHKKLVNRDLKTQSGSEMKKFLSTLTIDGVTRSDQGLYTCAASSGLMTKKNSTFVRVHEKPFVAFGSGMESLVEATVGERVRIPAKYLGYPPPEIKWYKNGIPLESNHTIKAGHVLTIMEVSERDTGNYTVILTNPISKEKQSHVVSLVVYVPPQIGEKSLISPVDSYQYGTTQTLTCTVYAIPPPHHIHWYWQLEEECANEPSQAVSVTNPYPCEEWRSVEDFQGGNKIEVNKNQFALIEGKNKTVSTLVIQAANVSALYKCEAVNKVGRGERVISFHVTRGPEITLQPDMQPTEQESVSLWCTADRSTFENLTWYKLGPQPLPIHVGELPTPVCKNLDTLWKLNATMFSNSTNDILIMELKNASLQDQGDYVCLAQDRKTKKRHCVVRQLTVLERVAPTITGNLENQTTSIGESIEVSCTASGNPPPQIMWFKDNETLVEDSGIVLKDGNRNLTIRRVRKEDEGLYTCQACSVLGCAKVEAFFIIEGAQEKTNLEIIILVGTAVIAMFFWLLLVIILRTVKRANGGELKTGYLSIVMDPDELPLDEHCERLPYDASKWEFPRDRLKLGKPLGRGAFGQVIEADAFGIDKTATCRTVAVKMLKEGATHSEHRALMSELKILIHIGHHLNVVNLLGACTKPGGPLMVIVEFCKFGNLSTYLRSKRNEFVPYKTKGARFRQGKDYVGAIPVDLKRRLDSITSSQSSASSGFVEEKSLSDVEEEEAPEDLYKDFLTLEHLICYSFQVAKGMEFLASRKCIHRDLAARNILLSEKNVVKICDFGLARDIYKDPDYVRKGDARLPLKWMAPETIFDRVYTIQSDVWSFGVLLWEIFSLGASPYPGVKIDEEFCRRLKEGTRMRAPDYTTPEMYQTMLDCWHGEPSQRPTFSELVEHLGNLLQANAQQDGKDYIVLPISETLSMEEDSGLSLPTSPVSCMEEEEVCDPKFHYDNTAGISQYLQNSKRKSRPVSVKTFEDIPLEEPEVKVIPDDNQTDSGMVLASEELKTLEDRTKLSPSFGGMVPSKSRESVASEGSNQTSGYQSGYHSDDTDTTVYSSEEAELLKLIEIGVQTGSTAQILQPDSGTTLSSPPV

Q: `CCOC(=O)[C@H](CCc1ccccc1)N[C@@H](C)C(=O)N1Cc2cc(OC)c(OC)cc2C[C@H]1C(=O)O` [MOEXIPRIL] was tested. Which AC50 did it give?
A: > 30 µM

Q: `c1ccc2c(CC3=NCCN3)cccc2c1` [NAPHAZOLINE] was tested. Which AC50 did it give?
A: > 30 µM

Q: For `CCOC(=O)c1ccc(OC(=O)CCCCCNC(=N)N)cc1` [GABEXATE], which AC50 is on record?
A: > 30 µM

Q: Which AC50 does the source give for `Cc1cc(CCN2CCN(c3cccc(Cl)c3)CC2)n[nH]1` [MEPIPRAZOLE] here?
A: > 30 µM

Q: With `CCCC(=O)O[C@H]1[C@H](C)O[C@@H](O[C@H]2[C@H](N(C)C)[C@@H](O)[C@H](O[C@H]3[C@@H](CC=O)C[C@@H](C)[C@@H](O)/C=C/C=C/C[C@@H](C)OC(=O)C[C@@H](O)[C@@H]3OC)O[C@@H]2C)C[C@@]1(C)OC(=O)CC` [ROKITAMYCIN] as the compound, how does the AC50 read?
A: > 30 µM

Q: With `NC(=O)NCCC[C@H](N)C(=O)O` [L-CITRULLINE] as the compound, how does the AC50 read?
A: > 30 µM

Q: How did the AC50 turn out when `CC(c1ccc(Cl)c(Cl)c1)N1N=C(N)CC1=O` (stereo not drawn) [MUZOLIMINE] was run?
A: > 30 µM

Q: Which AC50 does the source give for `C[C@H](N)C(=O)O` [ALANINE] here?
A: > 30 µM

Q: For `CCCCOc1ccc(CC(=O)NO)cc1` [BUFEXAMAC], which AC50 is on record?
A: > 30 µM

Q: How did the AC50 turn out when `C[C@H]1O[C@@H](O[C@H]2[C@@H](O)C[C@H](O[C@H]3[C@@H](O)C[C@H](O[C@H]4CC[C@@]5(C)[C@H](CC[C@@H]6[C@@H]5CC[C@]5(C)[C@@H](C7=CC(=O)OC7)CC[C@]65O)C4)O[C@@H]3C)O[C@@H]2C)C[C@H](O)[C@@H]1O` [DIGITOXIN] was run?
A: > 30 µM

Q: How did the AC50 turn out when `CCC(=O)O[C@]1(C(=O)COC(C)=O)CC[C@H]2[C@@H]3CCC4=CC(=O)CC[C@]4(C)[C@H]3[C@@H](O)C[C@@]21C` [HYDROCORTISONE ACEPONATE] was run?
A: > 30 µM

Q: Which AC50 does the source give for `C[C@@H](O)[C@H]1C(=O)N2C(C(=O)O)=C([C@H]3CCCO3)S[C@H]12` [FAROPENEM] here?
A: > 30 µM

Q: Which AC50 does the source give for `CC(N)CCCC(C)(C)O` (stereo not drawn) [HEPTAMINOL] here?
A: > 30 µM

Q: With `O=C(Oc1ccccc1C(=O)O)c1ccccc1O` [SALSALATE] as the compound, how does the AC50 read?
A: > 30 µM

Q: How did the AC50 turn out when `CC[N+](C)(CC)CCOC(=O)C1c2ccccc2Oc2ccccc21` [METHANTHELINE] was run?
A: > 30 µM

Q: `c1ccc2[nH]c(-c3cscn3)nc2c1` [THIABENDAZOLE] was tested. Which AC50 did it give?
A: > 30 µM

Q: For `CCC[C@@H]1C[C@@H](C(=O)N[C@@H]([C@H]2O[C@H](SC)[C@H](OP(=O)(O)O)[C@@H](O)[C@H]2O)[C@H](C)Cl)N(C)C1` [CLINDAMYCIN PHOSPHATE], which AC50 is on record?
A: > 30 µM

Q: With `OC(CCCN1CCCCC1)(c1ccccc1)c1ccccc1` [DIPHENIDOL] as the compound, how does the AC50 read?
A: > 30 µM

Q: `O=[N+]([O-])O[C@H]1CO[C@H]2[C@@H]1OC[C@H]2O[N+](=O)[O-]` [ISOSORBIDE DINITRATE] was tested. Which AC50 did it give?
A: > 30 µM

Q: How did the AC50 turn out when `CCCCC/C=C\C/C=C\C/C=C\CCCCC(=O)O` [GAMOLENIC ACID] was run?
A: > 30 µM

Q: With `CCCCCCCCCCCCCCCCCC(=O)NCCCC[C@H](NC(=O)CC[C@@H](NC(=O)[C@H](C)NC(=O)[C@@H](C)O[C@H]1[C@H](O)[C@@H](CO)OC(O)[C@@H]1NC(C)=O)C(N)=O)C(=O)O` (stereo partly drawn) [ROMURTIDE] as the compound, how does the AC50 read?
A: > 30 µM

Q: `c1cc(CN2CCCNCCNCCCNCC2)ccc1CN1CCCNCCNCCCNCC1` [PLERIXAFOR] was tested. Which AC50 did it give?
A: > 30 µM

Q: How did the AC50 turn out when `O=C(O)CC(O)(CC(=O)O)C(=O)O` [CITRIC ACID] was run?
A: > 30 µM

Q: `O=C1c2c(O)cccc2Cc2cccc(O)c21` [ANTHRALIN] was tested. Which AC50 did it give?
A: 6.14 µM

Q: How did the AC50 turn out when `COC(=O)C1=C(C)NC(C)=C(C(=O)O[C@H]2CCN(Cc3ccccc3)C2)[C@H]1c1cccc([N+](=O)[O-])c1` [BARNIDIPINE] was run?
A: > 30 µM

Q: With `C1CNCCN1` [PIPERAZINE] as the compound, how does the AC50 read?
A: 23.3 µM

Q: How did the AC50 turn out when `Cc1onc(-c2c(Cl)cccc2Cl)c1C(=O)N[C@@H]1C(=O)N2[C@@H]1SC(C)(C)[C@@H]2C(=O)O` [DICLOXACILLIN] was run?
A: > 30 µM

Q: For `CO[C@H]1[C@@H](O)C[C@H](O[C@H]2[C@@H](O)C[C@H](O[C@H]3[C@@H](O)C[C@H](O[C@H]4CC[C@@]5(C)[C@H](CC[C@@H]6[C@@H]5C[C@@H](O)[C@]5(C)[C@@H](C7=CC(=O)OC7)CC[C@]65O)C4)O[C@@H]3C)O[C@@H]2C)O[C@@H]1C` [METILDIGOXIN], which AC50 is on record?
A: > 30 µM

Q: With `Cc1nnc(SCC2=C(C(=O)O)N3C(=O)[C@@H](NC(=O)Cn4cc(Cl)c(=O)c(Cl)c4)[C@H]3SC2)s1` [CEFAZEDONE] as the compound, how does the AC50 read?
A: 10.1 µM

Q: How did the AC50 turn out when `O=C(CCCN1CC=C(n2c(=O)[nH]c3ccccc32)CC1)c1ccc(F)cc1` [DROPERIDOL] was run?
A: > 30 µM

Q: For `N[C@@H](Cc1c[nH]c2ccc(O)cc12)C(=O)O` [OXITRIPTAN], which AC50 is on record?
A: > 30 µM

Q: How did the AC50 turn out when `CC(=O)O[C@H]1C[C@H](O[C@H]2[C@@H](O)C[C@H](O[C@H]3[C@@H](O)C[C@H](O[C@H]4CC[C@@]5(C)[C@H](CC[C@@H]6[C@@H]5C[C@@H](O)[C@]5(C)[C@@H](C7=CC(=O)OC7)CC[C@]65O)C4)O[C@@H]3C)O[C@@H]2C)O[C@H](C)[C@H]1O[C@@H]1O[C@H](CO)[C@@H](O)[C@H](O)[C@H]1O` [LANATOSIDE C] was run?
A: > 30 µM

Q: Which AC50 does the source give for `Nc1ncnc(Nc2ccc(Cl)cc2)n1` [CHLORAZANIL] here?
A: 15 µM

Q: For `C[C@@H]1C[C@H]2[C@@H]3CCC4=CC(=O)C=C[C@]4(C)C3=CC[C@]2(C)[C@H]1C(=O)CN1CCN(c2cc(N3CCCC3)nc(N3CCCC3)n2)CC1` [TIRILAZAD], which AC50 is on record?
A: > 30 µM

Q: `CCSc1ccc2c(c1)N(CCCN1CCN(C)CC1)c1ccccc1S2` [THIETHYLPERAZINE] was tested. Which AC50 did it give?
A: > 30 µM

Q: With `COc1cc([C@@H]2c3cc4c(cc3[C@@H](O[C@@H]3O[C@@H]5CO[C@@H](c6cccs6)O[C@H]5[C@H](O)[C@H]3O)[C@H]3COC(=O)[C@H]23)OCO4)cc(OC)c1O` [TENIPOSIDE] as the compound, how does the AC50 read?
A: > 30 µM

Q: How did the AC50 turn out when `CCN(CC)CCOC(=O)C(Cc1cccc2ccccc12)CC1CCCO1` (stereo not drawn) [NAFRONYL] was run?
A: > 30 µM

Q: How did the AC50 turn out when `CO[C@H]1/C=C/O[C@@]2(C)Oc3c(C)c(O)c4c(O)c(cc(O)c4c3C2=O)NC(=O)/C(C)=C\C=C\[C@H](C)[C@H](O)[C@@H](C)[C@@H](O)[C@@H](C)[C@H](OC(C)=O)[C@@H]1C` [RIFAMYCIN] was run?
A: > 30 µM

Q: Which AC50 does the source give for `CC(=O)OC(C)OC(=O)C(C)c1ccc(-c2ccccc2)c(F)c1` (stereo not drawn) here?
A: > 30 µM

Target: 3',5'-cyclic-AMP phosphodiesterase 4D (Homo sapiens, UniProt Q08499)
Sequence (Q08499 whole entry): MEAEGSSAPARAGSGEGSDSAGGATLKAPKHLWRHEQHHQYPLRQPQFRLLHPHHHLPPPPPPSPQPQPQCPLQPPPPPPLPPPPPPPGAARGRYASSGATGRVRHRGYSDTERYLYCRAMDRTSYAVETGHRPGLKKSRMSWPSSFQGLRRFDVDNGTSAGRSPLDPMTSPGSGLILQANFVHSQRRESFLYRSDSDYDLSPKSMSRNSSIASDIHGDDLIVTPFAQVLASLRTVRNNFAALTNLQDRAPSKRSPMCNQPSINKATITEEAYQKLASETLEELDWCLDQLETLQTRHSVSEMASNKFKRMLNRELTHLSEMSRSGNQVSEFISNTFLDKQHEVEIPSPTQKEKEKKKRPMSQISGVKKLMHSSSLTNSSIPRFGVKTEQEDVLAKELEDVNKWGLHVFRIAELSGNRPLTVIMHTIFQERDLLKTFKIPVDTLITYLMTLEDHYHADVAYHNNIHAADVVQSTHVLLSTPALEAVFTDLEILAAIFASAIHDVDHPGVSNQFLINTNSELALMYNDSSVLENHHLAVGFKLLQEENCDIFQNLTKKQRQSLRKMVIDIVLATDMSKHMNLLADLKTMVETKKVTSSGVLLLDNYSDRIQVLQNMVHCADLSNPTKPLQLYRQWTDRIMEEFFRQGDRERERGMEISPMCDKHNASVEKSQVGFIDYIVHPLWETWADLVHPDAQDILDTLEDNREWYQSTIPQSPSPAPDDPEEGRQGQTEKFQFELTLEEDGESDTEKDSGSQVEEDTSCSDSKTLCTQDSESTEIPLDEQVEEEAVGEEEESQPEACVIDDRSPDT
Type: functional

Q: With `CCSc1ccc2c(c1)N(CCCN1CCN(C)CC1)c1ccccc1S2` [THIETHYLPERAZINE] as the compound, how does the AC50 read?
A: 16 µM

Target: T1, Alpha-2C adrenergic receptor (Homo sapiens, UniProt P18825)
T1 sequence (P18825 whole entry): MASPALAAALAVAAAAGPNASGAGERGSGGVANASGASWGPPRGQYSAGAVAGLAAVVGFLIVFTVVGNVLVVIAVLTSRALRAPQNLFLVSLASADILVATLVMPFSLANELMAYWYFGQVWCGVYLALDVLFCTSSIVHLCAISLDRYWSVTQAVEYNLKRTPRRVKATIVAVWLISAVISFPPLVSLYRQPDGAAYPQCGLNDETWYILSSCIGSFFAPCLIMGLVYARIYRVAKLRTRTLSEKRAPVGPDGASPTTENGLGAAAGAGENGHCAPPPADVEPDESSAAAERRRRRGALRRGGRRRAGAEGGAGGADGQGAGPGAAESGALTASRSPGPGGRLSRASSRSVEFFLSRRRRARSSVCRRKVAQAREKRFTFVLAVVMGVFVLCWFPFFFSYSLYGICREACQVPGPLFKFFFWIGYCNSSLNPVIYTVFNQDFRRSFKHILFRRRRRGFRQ
Type: functional

Q: How did the AC50 turn out when `c1ccc2c(CC3=NCCN3)cccc2c1` [NAPHAZOLINE] was run?
A: 0.33 µM

Q: `CCSc1ccc2c(c1)N(CCCN1CCN(C)CC1)c1ccccc1S2` [THIETHYLPERAZINE] was tested. Which AC50 did it give?
A: 2.2 µM

Target: Adenosine receptor A2a (Homo sapiens, UniProt P29274)
Sequence (P29274 whole entry): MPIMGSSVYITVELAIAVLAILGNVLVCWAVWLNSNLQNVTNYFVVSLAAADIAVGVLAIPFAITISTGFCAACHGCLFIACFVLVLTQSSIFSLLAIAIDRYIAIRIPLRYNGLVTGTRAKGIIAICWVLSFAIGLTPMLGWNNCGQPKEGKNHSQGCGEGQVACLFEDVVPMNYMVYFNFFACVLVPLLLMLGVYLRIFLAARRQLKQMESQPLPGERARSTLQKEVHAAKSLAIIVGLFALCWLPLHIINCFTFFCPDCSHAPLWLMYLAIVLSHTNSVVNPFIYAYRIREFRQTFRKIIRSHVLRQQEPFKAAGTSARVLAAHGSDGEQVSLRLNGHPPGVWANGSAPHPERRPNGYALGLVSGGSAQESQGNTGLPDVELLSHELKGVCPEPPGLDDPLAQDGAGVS

Q: How did the AC50 turn out when `CCSc1ccc2c(c1)N(CCCN1CCN(C)CC1)c1ccccc1S2` [THIETHYLPERAZINE] was run?
A: > 30 µM
